Values of other authors in patent US20250144122A1, “Scent-Changing Ointment & Method of Making The Same” (priority 2023, published 2025).

Columns and labels:
[1] = in vivo
[2] = topical application, 3.5% gel

SMILES | analgesic effect (pain threshold) [1] | blood flow remains reduced ([2]; at 10 minutes after application) [%] | reduces blood flow ([2]; within 60 seconds of application) [%]
CC1CC[C@H](C(C)C)[C@@H](O)C1 (stereo partly shown) [(d)-menthol] | completely devoid of any analgesic effect |  | 
CC(C)[C@@H]1CC[C@@H](C)C[C@H]1O [(l)-menthol] | able to increase pain threshold |  | 
CC1CCC(C(C)C)C(O)C1 (stereo not shown) [menthol, Menthol] |  | 20 | 35
